Legend:
wheat = experiment: Test A postemergence; format: in vivo, Triticum aestivum; settings: Triticum aestivum, post-emergence, 240 h, 0 to 100 scale (0 no effect, 100 complete control), approx. 10 d, read-out: Plant response rating, Wheat
Method in brief: (§1)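 Herbicidal response was scored on plants treated pre- or postemergence with surfactant-containing, non-phytotoxic solvent formulations. Preemergence meant a directed spray onto soil (loam–sand) holding sown seed; postemergence plants were at one to two leaves.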

sedge, umbrella = experiment: Test B flooded paddy test; format: in vivo, Cyperus difformis; settings: Cyperus difformis, 360 h, 250 g ai/ha, applied to paddy water at 2-leaf stage, visual rating after 13 to 15 d, scale 0 (no effect) to 100 (complete control), read-out: Plant response rating, Sedge, Umbrella, Flood
Method in brief: (§2)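 Pots were flooded to 3 cm above the soil at treatment, and compounds were applied directly into the paddy water. That depth was held throughout. After 13 to 15 d in a greenhouse, plants were rated visually against untreated controls.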

foxtail, giant = experiment: Test A preemergence; format: in vivo, Setaria faberii; settings: Setaria faberi, pre-emergence, 240 h, 0 to 100 scale (0 no effect, 100 complete control), read-out: Plant response rating, Foxtail, Giant
Method in brief: as §1

soybean = experiment: Test C postemergence; format: in vivo, Glycine max
Method in brief: (§3)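 Surfactant-containing, non-phytotoxic solvent formulations of each compound were applied either preemergence to seeds in a loam soil–sand blend or postemergence to plants 2 to 18 cm tall (1- to 4-leaf stage). Postemergence plants were grown in peat moss–vermiculite medium.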

crabgrass, large = experiment: Test C postemergence; format: in vivo, Digitaria sanguinalis
Method in brief: as §3

lambsquarters = experiment: Test C postemergence; format: in vivo, Chenopodium album
Method in brief: as §3

waterhemp = experiment: Test C postemergence; format: in vivo, Amaranthus rudis
Method in brief: as §3

morningglory = experiment: Test C postemergence; format: in vivo, Ipomoea coccinea
Method in brief: as §3

barnyardgrass [1] = experiment: Test B flooded paddy test; format: in vivo, Echinochloa crus-galli; settings: Echinochloa crus-galli, 360 h, 250 g ai/ha, applied to paddy water at 2-leaf stage, visual rating after 13 to 15 d, scale 0 (no effect) to 100 (complete control), read-out: Plant response rating, Barnyardgrass, Flood
Method in brief: as §2

corn = experiment: Test C postemergence; format: in vivo, Zea mays
Method in brief: as §3

barnyardgrass [2] = experiment: Test A preemergence; format: in vivo, Echinochloa crus-galli; settings: Echinochloa crus-galli, pre-emergence, 240 h, 0 to 100 scale (0 no effect, 100 complete control), read-out: Plant response rating, Barnyardgrass
Method in brief: as §1

barnyardgrass [3] = experiment: Test C preemergence; format: in vivo, Echinochloa crus-galli; settings: for Plant response rating (scale of 0 to 100 where 0 is no effect and 100 is complete control): Barnyardgrass, preemergence; for Barnyardgrass plant response rating (0 to 100): Preemergence, visual rating after 13 to 15 d
From the text: Seeds of plant species selected from blackgrass (Alopecurus myosuroides), ryegrass, Italian (Italian ryegrass, Lolium multiflorum), wheat (winter wheat, Triticum aestivum), galium (catchweed bedstraw, Galium aparine), corn (Zea mays), crabgrass, large (large crabgrass, Digitaria sanguinalis), foxtail, giant, (giant foxtail, Setaria faberii), johnsongrass (Sorghum halepense), lambsquarters (Chenopodium album), morningglory (Ipomoea coccinea), nutsedge, yellow (yellow nutsedge, Cyperus esculentus), pigweed (Amaranthus retroflexus), ragweed (common ragweed, Ambrosia elatior), soybean (Glycine max), barnyardgrass (Echinochloa crus-galli), oilseed rape (Brassica napus), waterhemp (common waterhemp, Amaranthus rudis), and velvetleaf (Abutilon theophrasti) were planted into a blend of loam soil and sand and treated preemergence with test chemicals formulated in a non-phytotoxic solvent mixture which included a surfactant. At the same time, plants selected from these crop and weed species and also chickweed (common chickweed, Stellaria media), oat, wild (wild oat, Avena fatua), and kochia (Kochia scoparia), were planted in pots containing Sunshine Redi-Earth® planting medium comprising spaghnum peat moss, vermiculite, starter nutrients and dolomitic limestone and treated with postemergence applications of test chemicals formulated in the same manner. Plants ranged in height from 2 to 18 cm (1- to 4-leaf stage) for postemergence treatments. […] A dash (-) response means no test result.

galium = experiment: Test C postemergence; format: in vivo, Galium aparine
Method in brief: as §3

pigweed = experiment: Test A postemergence; format: in vivo, Amaranthus retroflexus; settings: Amaranthus retroflexus, post-emergence, 240 h, 0 to 100 scale (0 no effect, 100 complete control), approx. 10 d, read-out: Plant response rating, Pigweed
Method in brief: as §1

SMILES: CCCc1nc(-c2ccc(F)cc2)nn1Cc1ccnc(C(F)(F)F)c1 [Compound 6, 4-[[3-(4-fluorophenyl)-5-propyl-1H-1,2,4-triazol-1-yl]methyl]-2-(trifluoromethyl)pyridine]
- plant injury at 125 g/ha (wheat; 125 g ai/ha): 40%
- plant injury at 500 g/ha (wheat; 500 g ai/ha): 70%
- pest or weed control at 250 g/ha (sedge, umbrella): 80%
- pest or weed control at 125 g/ha (foxtail, giant; 125 g ai/ha): 100%
- pest or weed control at 500 g/ha (foxtail, giant; 500 g ai/ha, approx. 10 d): 100%
- Plant response rating (scale of 0 to 100 where 0 is no effect and 100 is complete control) (soybean; 31 g ai/ha): 35
- Plant response rating (scale of 0 to 100 where 0 is no effect and 100 is complete control) (soybean; 62 g ai/ha): 40
- Plant response rating (scale of 0 to 100 where 0 is no effect and 100 is complete control) (soybean; 125 g ai/ha): 60
- Plant response rating (scale of 0 to 100 where 0 is no effect and 100 is complete control) (crabgrass, large; 31 g ai/ha): 10
- Plant response rating (scale of 0 to 100 where 0 is no effect and 100 is complete control) (crabgrass, large; 62 g ai/ha): 15
- Plant response rating (scale of 0 to 100 where 0 is no effect and 100 is complete control) (crabgrass, large; 125 g ai/ha): 25
- Plant response rating (scale of 0 to 100 where 0 is no effect and 100 is complete control) (crabgrass, large; 250 g ai/ha): 65
- Plant response rating (scale of 0 to 100 where 0 is no effect and 100 is complete control) (lambsquarters; 31 g ai/ha): 65
- Plant response rating (scale of 0 to 100 where 0 is no effect and 100 is complete control) (lambsquarters; 62 g ai/ha): 70
- Plant response rating (scale of 0 to 100 where 0 is no effect and 100 is complete control) (lambsquarters; 125 g ai/ha): 85
- Plant response rating (scale of 0 to 100 where 0 is no effect and 100 is complete control) (lambsquarters; 250 g ai/ha): 85
- Plant response rating (scale of 0 to 100 where 0 is no effect and 100 is complete control) (waterhemp; 31 g ai/ha): 80
- Plant response rating (scale of 0 to 100 where 0 is no effect and 100 is complete control) (waterhemp; 62 g ai/ha): 80
- Plant response rating (scale of 0 to 100 where 0 is no effect and 100 is complete control) (waterhemp; 125 g ai/ha): 80
- Plant response rating (scale of 0 to 100 where 0 is no effect and 100 is complete control) (waterhemp; 250 g ai/ha): 85
- Plant response rating (scale of 0 to 100 where 0 is no effect and 100 is complete control) (morningglory; 31 g ai/ha): 90
- Plant response rating (scale of 0 to 100 where 0 is no effect and 100 is complete control) (morningglory; 62 g ai/ha): 95
- Plant response rating (scale of 0 to 100 where 0 is no effect and 100 is complete control) (morningglory; 125 g ai/ha): 98
- pest or weed control at 250 g/ha (barnyardgrass [1]): 40%
- Plant response rating (scale of 0 to 100 where 0 is no effect and 100 is complete control) (corn; 31 g ai/ha): 10
- Plant response rating (scale of 0 to 100 where 0 is no effect and 100 is complete control) (corn; 62 g ai/ha): 15
- Plant response rating (scale of 0 to 100 where 0 is no effect and 100 is complete control) (corn; 125 g ai/ha): 20
- Plant response rating (scale of 0 to 100 where 0 is no effect and 100 is complete control) (corn; 250 g ai/ha): 50
- pest or weed control at 125 g/ha (barnyardgrass [2]; 125 g ai/ha): 80%
- pest or weed control at 500 g/ha (barnyardgrass [2]; 500 g ai/ha, approx. 10 d): 100%
- Plant response rating (scale of 0 to 100 where 0 is no effect and 100 is complete control) (barnyardgrass [3]; 125 g ai/ha): 95
- Plant response rating (scale of 0 to 100 where 0 is no effect and 100 is complete control) (barnyardgrass [3]; 250 g ai/ha): 98
- Barnyardgrass plant response rating (0 to 100) (barnyardgrass [3]; 31 g ai/ha): 50
- Barnyardgrass plant response rating (0 to 100) (barnyardgrass [3]; 62 g ai/ha): 75
- Plant response rating (scale of 0 to 100 where 0 is no effect and 100 is complete control) (galium; 31 g ai/ha): 80
- Plant response rating (scale of 0 to 100 where 0 is no effect and 100 is complete control) (galium; 62 g ai/ha): 80
- Plant response rating (scale of 0 to 100 where 0 is no effect and 100 is complete control) (galium; 125 g ai/ha): 90
- Plant response rating (scale of 0 to 100 where 0 is no effect and 100 is complete control) (galium; 250 g ai/ha): 90
- pest or weed control at 125 g/ha (pigweed; 125 g ai/ha): 50%
- pest or weed control at 500 g/ha (pigweed; 500 g ai/ha): 100%
